From article PMC12153338, “Resistance to oxyimino-cephalosporins conferred by an alternative mechanism of hydrolysis by the Acinetobacter-derived cephalosporinase-33 (ADC-33), a class C β-lactamase present in carbapenem-resistant Acinetobacter baumannii (CRAb)” (mBio, 2025)
≈ marks a conversion by molar mass, not a printed value.

What was measured:
ADC-30 = ADC-30 (Acinetobacter baumannii, UniProt A7XM81); experiment: Timed electrospray ionization mass spectrometry of acylated adducts, ADC-30; type: binding; conditions: ADC-30, +468 Da adduct, at 1 h; enzyme:substrate 1:25
Protocol: (§1) β-Lactamase (5 µg) was incubated with substrate at a molar ratio of 1:25 (FDC, CAZ, meropenem [MEM]) in sterile 10 mM PBS, pH 7.4, for a total reaction volume of 20 µL (t = 30 s, 1 min, 15 min, 30 min, 1 h, 2 h, and 24 h). Reactions were quenched with 1% acetonitrile and 0.1% formic acid. Samples were analyzed using Q-TOF Waters Synapt-G2-Si and a Waters Acquity ultrapressure liquid chromatography BEH C18 column (1.7 µm […]; 2.1 × 50 mm). MassLynx v.4.1 was used to deconvolute protein peaks. The tune settings for each data run were as follows: capillary voltage at 3.5 kV, sampling cone at 35, source offset at 35, source temperature 100°C, desolvation temperature 500°C, cone gas at 100 L/h, desolvation gas at 800 L/h, and nebulizer bar at 6.0. Mobile phase A was 0.1% formic acid-water. Mobile phase B was 0.1% formic acid-acetonitrile. The mass accuracy for this system is ±5 Da. Mass spectrometry experiments were performed once over a range of time points.

[1] = system: ADC-7 in DH10B Escherichia coli; experiment: MIC by broth microdilution, ADC-7 in DH10B E. coli; type: cell-based; conditions: DH10B E. coli expressing ADC-7 (non-Adup) from pBCSK−, FDC in iron-depleted cation-adjusted MH broth, mode of triplicate
Protocol: (§2) Susceptibility testing to standard antibiotics was performed by broth microdilution according to 2024 Clinical and Laboratory Standards Institute (CLSI) guidelines ([38]). MICs for FDC were done in iron-depleted cation-adjusted Mueller-Hinton (MH) broth according to CLSI methods. All MICs were interpreted according to the 2024 CLSI guidelines ([38]). MICs are done in triplicate, and the mode MIC value is reported.
(§3) blaADC-7 pBCSK− was cloned and expressed in E. coli DH10B cells as previously described for MIC determinations ([3]). The pBCSK-non-inducible phagemid vector has a chloramphenicol resistance gene used to aid selection. All other blaADC variants were synthesized by GenScript according to the blaADC-7 pBCSK− strategy, cloning into the XbaI/BamHI sites of the pBCSK− vector ([5]).

DH10B alone = experiment: MIC by broth microdilution, DH10B alone; type: cell-based; conditions: Escherichia coli; DH10B alone (control strain); FDC in iron-depleted cation-adjusted MH broth
Protocol: as §2, §3

ADC-33 [2] = target: T1, ADC-33 (Acinetobacter baumannii, UniProt A7Y407); experiment: Timed electrospray ionization mass spectrometry of acylated adducts, ADC-33; type: binding; conditions: ADC-33, incubation 30 s–1 h; enzyme:substrate 1:25
Protocol: as §1

ADC-33 [3] = target: T1, ADC-33; experiment: Competition kinetics with nitrocefin (Ki), ADC-33; type: biochemical; conditions: 3 min pre-incubation, Cheng-Prusoff corrected
Protocol: (§4) For inhibition kinetics, utilizing NCF as a colorimetric substrate of ADCs, the inhibition constant (Ki) of CAZ and FDC with ADCs was determined using competition kinetics as previously described ([5]). After a 3 min pre-incubation of the enzyme (2 nM) with increasing concentration of the inhibitor, measurements of the initial velocities were performed with the addition of 100–200 µM NCF (twofold of the experimentally determined KM value). To determine the average velocities (v0), data from three experiments were fit to the followingequation: […]
(§5) where vu represents the NCF uninhibited velocity and IC50 represents the inhibitor concentration that results in a 50% reduction of vu. The Ki value was corrected for the NCF affinity (KM values for each ADC) with the Cheng-Prusoff ([5]) equation: […]
(§6) The standard error for Ki values was generated by factoring in the larger of the proportional standard errors for the individual IC50 value and the KM -NCF value.

ADC-7 = ADC-7 (Acinetobacter baumannii, UniProt Q6DRA1); experiment: Competition kinetics with nitrocefin (Ki), ADC-7; type: biochemical; conditions: 3 min pre-incubation, Cheng-Prusoff corrected
Protocol: as §4, §5, §6

[4] = system: ADC-33 in DH10B Escherichia coli; experiment: MIC by broth microdilution, ADC-33 in DH10B E. coli; type: cell-based; conditions: DH10B E. coli expressing ADC-33 (Adup) from pBCSK−, FDC in iron-depleted cation-adjusted MH broth, mode of triplicate
Protocol: as §2, §3

[5] = system: DH10B Escherichia coli pBCSK− no insert; experiment: MIC by broth microdilution, DH10B E. coli with pBCSK− no insert; type: cell-based; conditions: DH10B E. coli with pBCSK− no insert (control strain), FDC in iron-depleted cation-adjusted MH broth
Protocol: as §2, §3

ADC-172 = ADC-172 (Acinetobacter baumannii, UniProt A7Y407, N321K); experiment: Competition kinetics with nitrocefin (Ki), ADC-172; type: biochemical; conditions: 3 min pre-incubation, Cheng-Prusoff corrected
Protocol: as §4, §5, §6

With CC(C)(O/N=C(\C(=O)N[C@@H]1C(=O)N2C(C(=O)[O-])=C(C[n+]3ccccc3)CS[C@H]12)c1csc(N)n1)C(=O)O [CAZ, ceftazidime] the “percentage of acylated adduct” value (ADC-30) was 20%, the MIC [1] was 64 µg/mL (≈ 117 µM) and the MIC (DH10B alone) was 0.5 µg/mL (≈ 0.915 µM). For the same compound, the “formation of stable acyl-enzyme adduct” value (ADC-33 [2]) was “did not form a stable acyl-enzyme adduct”, the Ki (ADC-33 [3]) was 28.4 ± 2.09 µM and the Ki (ADC-7) was 2.1 ± 0.25 µM. The MIC [4] was 1020 µg/mL (≈ 1870 µM), the MIC [5] was 0.25 µg/mL (≈ 0.457 µM) and the Ki (ADC-172) was 12.7 ± 1.45 µM.
